Laboratory results: patent US20240382482A1, “PLASMA KALLIKREIN INHIBITORS” (TAKEDA PHARMACEUTICAL COMPANY LIMITED, priority 2021, published 2024)
Where a name gives a salt, the structure may show the parent alone.

Target: human activated kallikrein enzyme (Homo sapiens, UniProt P03952)
Assay: Inhibition of human activated kallikrein enzyme, fluorogenic peptide substrate assay (500 pM enzyme format)
Type: biochemical
Details: 500 pM activated kallikrein, 300 μM PFR-AMC substrate, 30 min preincubation, 10 min reaction, room temperature; read-out: Primary Dose Response Assay: Average EC50
Experimental: Compounds were evaluated for inhibition of the human activated kallikrein enzyme in two formats of an assay employing a fluorogenic peptide substrate. In one assay format, the concentrations of reagents were as follows: 20 mM Tris pH 7.5, 1 mM EDTA, 150 mM sodium chloride, 0.1% PEG-400, 0.1% Triton X-100, 500 pM activated kallikrein enzyme, 300 μM Pro-Phe-Arg-7-amido-4-methylcoumarin (PFR-AMC) substrate. Prior to reaction initiation with substrate, enzyme and inhibitors were preincubated for 30 min at room temperature. After initiation with substrate, reactions were incubated for 10 min at room temperature and fluorescence emission at 460 nm from 380 nm excitation measured with a microplate reader. In another assay format, the concentrations of reagents were as follows: 20 mM Tris pH 7.5, 1 mM EDTA, 150 mM sodium chloride, 0.1% PEG-400, 0.1% Triton X-100, 5 pM activated kallikrein enzyme, 300 uM PFR-AMC substrate. Prior to reaction initiation with substrate, enzyme and inhibitors were preincubated for 30 min at room temperature. After initiation with substrate, reactions were incubated for 18 hr at room temperature and fluorescence emission at 460 nm from 380 nm excitation measured with a microplate reader.
Table 1 provides the results of the assay in the format with 500 pM activated kallikrein assay. For the compounds listed in Table 1, the EC50 values are reported according to the following ranges: A≤5.0 nM; 5.0 nM<B≤50 nM; 50 nM<C≤500 nM; 500 nM<D≤9000 nM; 9000 nM<E.

Sequence of human activated kallikrein enzyme (P03952 391-638 limits assumed): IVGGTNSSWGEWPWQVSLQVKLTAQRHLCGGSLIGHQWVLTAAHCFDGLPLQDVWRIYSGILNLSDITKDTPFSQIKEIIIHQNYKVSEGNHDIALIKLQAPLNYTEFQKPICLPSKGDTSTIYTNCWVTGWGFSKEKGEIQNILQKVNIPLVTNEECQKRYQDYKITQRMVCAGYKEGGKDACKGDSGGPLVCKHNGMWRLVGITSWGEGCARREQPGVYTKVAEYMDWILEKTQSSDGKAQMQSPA
Sequence of human activated kallikrein enzyme (P03952 20-390 partner limits assumed): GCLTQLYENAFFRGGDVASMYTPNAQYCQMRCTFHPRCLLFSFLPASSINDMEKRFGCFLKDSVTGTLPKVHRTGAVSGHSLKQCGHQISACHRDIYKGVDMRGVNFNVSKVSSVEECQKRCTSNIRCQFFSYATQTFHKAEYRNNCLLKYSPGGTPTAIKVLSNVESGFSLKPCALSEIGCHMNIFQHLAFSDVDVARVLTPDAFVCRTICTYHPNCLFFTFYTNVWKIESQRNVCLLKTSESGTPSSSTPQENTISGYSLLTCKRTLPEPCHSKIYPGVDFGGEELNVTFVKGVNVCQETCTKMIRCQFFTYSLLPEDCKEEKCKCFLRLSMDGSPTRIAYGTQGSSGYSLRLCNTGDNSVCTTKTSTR

Row | EC50 [µM] | Structure (SMILES)
1 | 0.005 to 0.05 | O=C(NCc1ncn2ccc(Cl)cc12)c1cnnc(NCc2cn3cc(C4CC4)ccc3n2)c1 [Example 65, N-((7-chloroimidazo[1,5-a]pyridin-1-yl)methyl)-6-(((6-cyclopropylimidazo[1,2-a]pyridin-2-yl)methyl)amino)pyridazine-4-carboxamide]
2 | 0.005 to 0.05 | O=C(NCc1ncn2ccc(Cl)cc12)c1cnnc(OCc2cn3cc(C4CC4)ccc3n2)c1 [Example 66, N-((7-chloroimidazo[1,5-a]pyridin-1-yl)methyl)-6-((6-cyclopropylimidazo[1,2-a]pyridin-2-yl)methoxy)pyridazine-4-carboxamide]
3 | 0.5 to 9 | O=S(=O)(Nc1cc(NCc2cn3cc(C4CC4)ccc3n2)ncn1)C1CC1c1cccc(Cl)c1 (centres unmarked) [Example 67, 2-(3-chlorophenyl)-N-(6-(((6-cyclopropylimidazo[1,2-a]pyridin-2-yl)methyl)amino)pyrimidin-4-yl)cyclopropane-1-sulfonamide]
4 | 0.005 to 0.05 | O=c1c(NCc2cn3cc(C4CC4)ccc3n2)c(NCc2ncn3ccc(Cl)cc23)c1=O [Example 68, 3-(((7-chloroimidazo[1,5-a]pyridin-1-yl)methyl)amino)-4-(((6-cyclopropylimidazo[1,2-a]pyridin-2-yl)methyl)amino)cyclobut-3-ene-1,2-dione]
5 | ≤ 0.005 | Cc1cc(C(=N)N)cc(C)c1CNc1cc(OCc2cn3cc(Cl)ccc3n2)ncn1 [Example 69, 4-(((6-((6-chloroimidazo[1,2-a]pyridin-2-yl)methoxy)pyrimidin-4-yl)amino)methyl)-3,5-dimethylbenzimidamide formic acid salt]
6 | ≤ 0.005 | CCOC(=O)CCc1nc(NCc2c(C)cc(C(=N)N)cc2C)cc(OCc2cn3cc(C4CC4)ccc3n2)n1 [Example 70, ethyl 3-(4-((4-carbamimidoyl-2,6-dimethylbenzyl)amino)-6-((6-cyclopropylimidazo[1,2-a]pyridin-2-yl)methoxy)pyrimidin-2-yl)propanoate formic acid salt]
7 | 0.005 to 0.05 | Cc1cc(C(=N)NO)cc(C)c1CNc1cc(OCc2cn3cc(C4CC4)ccc3n2)ncn1 [Example 71, 4-(((6-((6-cyclopropylimidazo[1,2-a]pyridin-2-yl)methoxy)pyrimidin-4-yl)amino)methyl)-N-hydroxy-3,5-dimethylbenzimidamide]
8 | ≤ 0.005 | Cc1cc(C(=N)N)cc(C)c1CNc1cc(OCc2cn3cc(C4CC4)ccc3n2)ncn1 [Example 72, 4-(((6-((6-cyclopropylimidazo[1,2-a]pyridin-2-yl)methoxy)pyrimidin-4-yl)amino)methyl)-3,5-dimethylbenzimidamide formic acid salt]
9 | 0.05 to 0.5 | CCOC(=O)CCc1nc(NCc2c(C)cc(C(=N)NO)cc2C)cc(OCc2cn3cc(C4CC4)ccc3n2)n1 [Example 73, ethyl 3-(4-((6-cyclopropylimidazo[1,2-a]pyridin-2-yl)methoxy)-6-((4-(N-hydroxycarbamimidoyl)-2,6-dimethylbenzyl)amino)pyrimidin-2-yl)propanoate]
10 | ≤ 0.005 | Cc1cc(C(=N)N)cc(C)c1CNc1cc(OCc2cn3cc(C4CC4)ccc3n2)nc(CCC(=O)O)n1 [Example 74, 3-(4-((4-carbamimidoyl-2,6-dimethylbenzyl)amino)-6-((6-cyclopropylimidazo[1,2-a]pyridin-2-yl)methoxy)pyrimidin-2-yl)propanoic acid formic acid salt]
11 | 0.05 to 0.5 | CCCCCCOC(=O)NC(=N)c1cc(C)c(CNc2cc(OCc3cn4cc(C5CC5)ccc4n3)nc(CCC(=O)OCC)n2)c(C)c1 [Example 75, ethyl 3-(4-((6-cyclopropylimidazo[1,2-a]pyridin-2-yl)methoxy)-6-((4-(N-((hexyloxy)carbonyl)carbamimidoyl)-2,6-dimethylbenzyl)amino)pyrimidin-2-yl)propanoate]
12 | 0.05 to 0.5 | CCCCCCOC(=O)NC(=N)c1cc(C)c(CNc2cc(OCc3cn4cc(C5CC5)ccc4n3)ncn2)c(C)c1 [Example 76, hexyl ((4-(((6-((6-cyclopropylimidazo[1,2-a]pyridin-2-yl)methoxy)pyrimidin-4-yl)amino)methyl)-3,5-dimethylphenyl)(imino)methyl)carbamate]
13 | 0.005 to 0.05 | CCOC(=O)CCc1nc(NCc2c(C)cc(C(=N)NC(=O)OCC)cc2C)cc(OCc2cn3cc(C4CC4)ccc3n2)n1 [Example 77, ethyl 3-(4-((6-cyclopropylimidazo[1,2-a]pyridin-2-yl)methoxy)-6-((4-(N-(ethoxycarbonyl)carbamimidoyl)-2,6-dimethylbenzyl)amino)pyrimidin-2-yl)propanoate]
14 | 0.05 to 0.5 | CCOC(=O)c1nc(NCc2c(C)cc(C(=N)NO)cc2C)cc(OCc2cn3cc(C4CC4)ccc3n2)n1 [Example 81, ethyl 4-((6-cyclopropylimidazo[1,2-a]pyridin-2-yl)methoxy)-6-((4-(N-hydroxycarbamimidoyl)-2,6-dimethylbenzyl)amino)pyrimidine-2-carboxylate]
15 | ≤ 0.005 | CCOC(=O)c1nc(NCc2c(C)cc(C(=N)N)cc2C)cc(OCc2cn3cc(C4CC4)ccc3n2)n1 [Example 82, ethyl 4-((4-carbamimidoyl-2,6-dimethylbenzyl)amino)-6-((6-cyclopropylimidazo[1,2-a]pyridin-2-yl)methoxy)pyrimidine-2-carboxylate]
16 | 0.05 to 0.5 | CCOC(=O)NC(=N)c1cc(C)c(CNc2cc(OCc3cn4cc(C5CC5)ccc4n3)ncn2)c(C)c1 [Example 83, ethyl ((4-(((6-((6-cyclopropylimidazo[1,2-a]pyridin-2-yl)methoxy)pyrimidin-4-yl)amino)methyl)-3,5-dimethylphenyl)(imino)methyl)carbamate]
17 | 0.005 to 0.05 | Cc1cc(C(=N)NO)cc(C)c1CNc1cc(OCc2cn3cc(C4CC4)ccc3n2)nc(C(=O)O)n1 [Example 84, 4-((6-cyclopropylimidazo[1,2-a]pyridin-2-yl)methoxy)-6-((4-(N-hydroxycarbamimidoyl)-2,6-dimethylbenzyl)amino)pyrimidine-2-carboxylic acid]
18 | ≤ 0.005 | Cc1cc(C(=N)N)cc(C)c1CNc1cc(OCc2cn3cc(C4CC4)ccc3n2)nc(C(=O)O)n1 [Example 85, 4-((4-carbamimidoyl-2,6-dimethylbenzyl)amino)-6-((6-cyclopropylimidazo[1,2-a]pyridin-2-yl)methoxy)pyrimidine-2-carboxylic acid]
19 | 0.05 to 0.5 | CCOC(=O)NC(=N)c1cc(C)c(CNc2cc(OCc3cn4cc(C5CC5)ccc4n3)nc(C(=O)OCC)n2)c(C)c1 [Example 86, ethyl 4-((6-cyclopropylimidazo[1,2-a]pyridin-2-yl)methoxy)-6-(4-(N-(ethoxycarbonyl)carbamimidoyl)-2,6-dimethylbenzylamino)pyrimidine-2-carboxylate]
20 | 0.05 to 0.5 | CCCCCCOC(=O)NC(=N)c1cc(C)c(CNc2cc(OCc3cn4cc(C5CC5)ccc4n3)nc(C(=O)OCC)n2)c(C)c1 [Example 87, ethyl 4-((6-cyclopropylimidazo[1,2-a]pyridin-2-yl)methoxy)-6-(4-(N-(hexyloxycarbonyl)carbamimidoyl)-2,6-dimethylbenzylamino)pyrimidine-2-carboxylate]
21 | ≤ 0.005 | CCOC(=O)NC(=N)c1cc(C)c(CNc2cc(OCc3cn4cc(C5CC5)ccc4n3)nc(C(=O)O)n2)c(C)c1 [Example 88, 4-((6-cyclopropylimidazo[1,2-a]pyridin-2-yl)methoxy)-6-(4-(N-(ethoxycarbonyl)carbamimidoyl)-2,6-dimethylbenzylamino)pyrimidine-2-carboxylic acid]
22 | 0.5 to 9 | CC(=O)OCONC(=N)c1cc(C)c(CNc2cc(OCc3cn4cc(C5CC5)ccc4n3)ncn2)c(C)c1 [Example 90, ((4-(((6-((6-cyclopropylimidazo[1,2-a]pyridin-2-yl)methoxy)pyrimidin-4-yl)amino)methyl)-3,5-dimethylbenzimidamido)oxy)methyl acetate]
23 | ≤ 0.005 | Cc1cc(C(=N)N)cc(C)c1CNc1cc(OCc2cn3cc(C4CC4)ccc3n2)nc(-c2nn[nH]n2)n1 [Example 91, 4-(((6-((6-cyclopropylimidazo[1,2-a]pyridin-2-yl)methoxy)-2-(2H-tetrazol-5-yl)pyrimidin-4-yl)amino)methyl)-3,5-dimethylbenzimidamide]
24 | ≤ 0.005 | Cc1cc(C(=N)N)cc(C)c1CNc1cc(OCc2cn3cc(C4CC4)ccc3n2)nc(CC(C)(C)C(=O)O)n1 [Example 92, 3-(4-((4-carbamimidoyl-2,6-dimethylbenzyl)amino)-6-((6-cyclopropylimidazo[1,2-a]pyridin-2-yl)methoxy)pyrimidin-2-yl)-2,2-dimethylpropanoic acid]
25 | ≤ 0.005 | CCOC(=O)C(C)(C)Cc1nc(NCc2c(C)cc(C(=N)N)cc2C)cc(OCc2cn3cc(C4CC4)ccc3n2)n1 [Example 93, ethyl 3-(4-((4-carbamimidoyl-2,6-dimethylbenzyl)amino)-6-((6-cyclopropylimidazo[1,2-a]pyridin-2-yl)methoxy)pyrimidin-2-yl)-2,2-dimethylpropanoate]
26 | ≤ 0.005 | CCOC(=O)Cc1cc(C2CC2)cn2cc(COc3cc(NCc4c(C)cc(C(=N)N)cc4C)ncn3)nc12 [Example 94, ethyl 2-(2-((6-(4-carbamimidoyl-2,6-dimethylbenzylamino)pyrimidin-4-yloxy)methyl)-6-cyclopropylimidazo[1,2-a]pyridin-8-yl)acetate]
